Experiments:
CDK4/D1 = CDK4/D1 (Homo sapiens, UniProt P11802); test: ADP Glo Kinase assay CDK4/D1; type: biochemical; details: CDK4D1; compound at 10 μM; read-out: residual activity (%) at 10 μM CDK4D1
Outline: (§1)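 ADP Glo luminescence, in-house: CDK4/D1, CDK6/D3 on RB-CTF substrate (Tris pH 7.5, MgCl2, DTT, BSA); CDK9/T1 on RBER-IRStide. Reaction 40 min, 37° C after ATP addition. 10-point 1:3 series, 10 μM to 0.5 nM. IC50 by 4-parameter logistic; Ki derived using ATP Km.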

leukemia cell lines = test: Resazurin cell viability assay on leukemia cell lines (72 h growth inhibition, GI50); type: cell-based; details: Homo sapiens, MV4-11 cells
Outline: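 Cells were exposed to compound, then viability was read by MTT (solid tumour lines) or resazurin reduction (leukaemia lines). Non-linear regression gave the concentration inhibiting 50% of cell growth.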

CDK9/T1 = CDK9/T1 (Homo sapiens, UniProt P50750); test: ADP Glo Kinase assay CDK9/T1; type: biochemical; details: CDK9T1; read-out: CDK inhibition, Ki (μM) CDK9T1
Outline: as §1

CDKs and other kinases [1] = molecular target: T1, CDKs and other kinases (Homo sapiens, UniProt P50613); test: Radiometric kinase assay (Eurofins Pharma Discovery or Reaction Biology Corporation Kinase Profiler); type: biochemical; details: CDK7H; for Ki: read-out: CDK inhibition, Ki (μM) CDK7H; for remaining activity at 10 µM: compound at 10 μM, read-out: residual activity (%) at 10 μM CDK7H
T1 construct: other: CDK7H; residual activity (%) at 10 μM CDK7H; compound at 10 μM
Outline: (§2)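 Other CDKs and further kinases were profiled externally by radiometric assay. In-house ADP Glo assays covered CDK4/D1 and CDK6/D3 (RB-CTF substrate, pH 7.5 Tris buffer with MgCl2, DTT, BSA) and CDK9/T1 (RBER-IRStide substrate), 40 min at 37° C.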

CDKs and other kinases [2] = molecular target: T2, CDKs and other kinases (Homo sapiens, UniProt P06493); test: as above; type: biochemical; details: CDK1B; for Ki: read-out: CDK inhibition, Ki (μM) CDK1B; for remaining activity at 10 µM: compound at 10 μM, read-out: residual activity (%) at 10 μM CDK1B
T2 construct: other: CDK1B; residual activity (%) at 10 μM CDK1B; compound at 10 μM
Outline: as §2

CDKs and other kinases [3] = molecular target: T3, CDKs and other kinases (Homo sapiens, UniProt P24941); test: as above; type: biochemical; details: CDK2A; for Ki: read-out: CDK inhibition, Ki (μM) CDK2A; for remaining activity at 10 µM: compound at 10 μM, read-out: residual activity (%) at 10 μM CDK2A
T3 construct: other: CDK2A; residual activity (%) at 10 μM CDK2A; compound at 10 μM
Outline: as §2

CDK6/D3 = CDK6/D3 (Homo sapiens, UniProt Q00534); test: ADP Glo Kinase assay CDK6/D3; type: biochemical; details: CDK6D3; compound at 10 μM; read-out: residual activity (%) at 10 μM CDK6D3
Outline: as §1

CDK9/T1, sequence (P50750 whole entry): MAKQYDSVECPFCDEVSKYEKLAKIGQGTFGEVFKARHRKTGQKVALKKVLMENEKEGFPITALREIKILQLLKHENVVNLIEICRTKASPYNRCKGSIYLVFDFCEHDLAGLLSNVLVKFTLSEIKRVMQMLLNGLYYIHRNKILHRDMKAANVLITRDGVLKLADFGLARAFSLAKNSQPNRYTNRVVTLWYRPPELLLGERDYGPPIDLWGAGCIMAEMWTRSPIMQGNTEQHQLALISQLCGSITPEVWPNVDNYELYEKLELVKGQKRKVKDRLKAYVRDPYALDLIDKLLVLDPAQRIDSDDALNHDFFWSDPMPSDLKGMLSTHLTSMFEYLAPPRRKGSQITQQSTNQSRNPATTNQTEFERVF
CDK9/T1, sequence (O60563 whole entry partner): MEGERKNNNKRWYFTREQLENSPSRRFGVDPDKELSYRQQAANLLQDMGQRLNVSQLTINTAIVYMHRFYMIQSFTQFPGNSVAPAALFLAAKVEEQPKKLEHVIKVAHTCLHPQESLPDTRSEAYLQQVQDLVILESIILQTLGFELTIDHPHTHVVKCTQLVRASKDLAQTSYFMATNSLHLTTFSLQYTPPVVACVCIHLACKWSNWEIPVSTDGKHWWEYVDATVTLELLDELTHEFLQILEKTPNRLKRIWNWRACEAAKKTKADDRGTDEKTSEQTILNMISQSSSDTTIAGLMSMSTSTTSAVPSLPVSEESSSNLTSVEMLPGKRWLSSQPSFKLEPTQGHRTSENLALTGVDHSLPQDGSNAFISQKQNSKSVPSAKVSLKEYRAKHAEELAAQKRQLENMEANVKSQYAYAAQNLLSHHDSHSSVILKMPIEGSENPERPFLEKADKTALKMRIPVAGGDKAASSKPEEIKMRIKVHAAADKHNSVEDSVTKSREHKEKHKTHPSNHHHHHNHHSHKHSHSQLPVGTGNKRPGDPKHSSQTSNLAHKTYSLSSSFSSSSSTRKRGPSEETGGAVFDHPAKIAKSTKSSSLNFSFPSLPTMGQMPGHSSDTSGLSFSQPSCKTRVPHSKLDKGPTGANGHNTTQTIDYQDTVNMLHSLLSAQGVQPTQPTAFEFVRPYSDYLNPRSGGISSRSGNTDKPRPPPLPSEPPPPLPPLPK
CDK4/D1, sequence (P11802 whole entry): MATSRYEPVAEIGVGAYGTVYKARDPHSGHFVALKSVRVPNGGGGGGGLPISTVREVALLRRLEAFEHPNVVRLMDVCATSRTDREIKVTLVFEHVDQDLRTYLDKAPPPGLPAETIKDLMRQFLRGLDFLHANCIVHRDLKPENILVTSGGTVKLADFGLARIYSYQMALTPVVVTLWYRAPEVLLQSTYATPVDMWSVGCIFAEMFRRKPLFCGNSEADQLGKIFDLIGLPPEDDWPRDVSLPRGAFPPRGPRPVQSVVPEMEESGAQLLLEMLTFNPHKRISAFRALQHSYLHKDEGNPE
CDK4/D1, sequence (P24385 whole entry partner): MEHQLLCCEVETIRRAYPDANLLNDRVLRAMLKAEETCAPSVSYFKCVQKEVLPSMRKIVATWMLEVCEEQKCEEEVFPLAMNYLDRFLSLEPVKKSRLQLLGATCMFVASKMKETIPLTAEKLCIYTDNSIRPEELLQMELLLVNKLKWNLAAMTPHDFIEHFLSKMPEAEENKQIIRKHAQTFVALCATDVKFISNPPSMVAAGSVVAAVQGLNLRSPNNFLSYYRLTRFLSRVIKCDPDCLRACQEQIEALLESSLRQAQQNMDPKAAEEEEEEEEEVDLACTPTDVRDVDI
T1 sequence (P50613 whole entry): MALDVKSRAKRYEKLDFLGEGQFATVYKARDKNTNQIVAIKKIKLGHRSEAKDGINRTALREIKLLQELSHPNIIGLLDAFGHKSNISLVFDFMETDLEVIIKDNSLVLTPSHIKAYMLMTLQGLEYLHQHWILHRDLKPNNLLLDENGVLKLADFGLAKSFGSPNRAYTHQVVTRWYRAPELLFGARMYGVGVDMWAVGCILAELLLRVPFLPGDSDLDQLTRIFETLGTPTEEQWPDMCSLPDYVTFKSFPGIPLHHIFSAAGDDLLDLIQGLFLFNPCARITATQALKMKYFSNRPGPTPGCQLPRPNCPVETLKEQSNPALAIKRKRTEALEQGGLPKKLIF
T2 sequence (P06493 whole entry): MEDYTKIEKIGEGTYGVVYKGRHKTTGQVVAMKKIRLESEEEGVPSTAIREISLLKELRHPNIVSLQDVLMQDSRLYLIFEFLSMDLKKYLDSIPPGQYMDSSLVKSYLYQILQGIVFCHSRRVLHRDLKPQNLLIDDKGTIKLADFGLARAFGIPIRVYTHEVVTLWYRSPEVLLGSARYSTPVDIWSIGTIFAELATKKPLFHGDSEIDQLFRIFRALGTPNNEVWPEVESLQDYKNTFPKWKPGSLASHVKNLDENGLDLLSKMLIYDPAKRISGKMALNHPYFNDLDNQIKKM
CDK6/D3, sequence (Q00534 whole entry): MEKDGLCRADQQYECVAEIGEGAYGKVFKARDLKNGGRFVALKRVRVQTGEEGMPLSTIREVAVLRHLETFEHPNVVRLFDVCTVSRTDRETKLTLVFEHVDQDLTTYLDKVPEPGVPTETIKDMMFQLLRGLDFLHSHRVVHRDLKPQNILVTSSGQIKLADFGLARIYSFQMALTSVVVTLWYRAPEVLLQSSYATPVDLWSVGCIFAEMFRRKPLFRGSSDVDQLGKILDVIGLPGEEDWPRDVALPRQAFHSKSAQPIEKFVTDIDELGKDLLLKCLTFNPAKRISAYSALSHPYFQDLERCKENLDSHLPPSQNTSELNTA
CDK6/D3, sequence (P30281 whole entry partner): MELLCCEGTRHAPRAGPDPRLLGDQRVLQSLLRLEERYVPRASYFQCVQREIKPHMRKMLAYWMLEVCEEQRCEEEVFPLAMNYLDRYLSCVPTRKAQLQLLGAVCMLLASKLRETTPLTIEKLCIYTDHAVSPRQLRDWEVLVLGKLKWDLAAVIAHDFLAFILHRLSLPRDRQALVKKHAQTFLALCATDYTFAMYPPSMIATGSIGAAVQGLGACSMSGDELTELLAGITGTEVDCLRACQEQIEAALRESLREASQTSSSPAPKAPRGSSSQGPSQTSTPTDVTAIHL

SMILES	remaining activity at 10 µM (CDK4/D1)	GI50 (leukemia cell lines)	Ki (CDK9/T1)	Ki (CDKs and other kinases [1])	Ki (CDKs and other kinases [2])	Ki (CDKs and other kinases [3])	remaining activity at 10 µM (CDK6/D3)	remaining activity at 10 µM (CDKs and other kinases [1])	remaining activity at 10 µM (CDKs and other kinases [2])	remaining activity at 10 µM (CDKs and other kinases [3])
Cc1cnc(N[C@H]2CC[C@H](N)CC2)nc1-c1cnc2ccc(NCc3ccc(F)cc3)cn12 [Compound 32, (1r,4r)-N^1-(4-(6-((4-Fluorobenzyl)amino)imidazo[1,2-a]pyridin-3-yl)-5-methylpyrimidin-2-yl)cyclohexane-1,4-diamine]	16%	0.066 ± 0.014 µM	0.094 µM	5.39 µM	> 10 µM	0.63 µM	36%	–	–	–
Cc1cnc(NC2CCC(N(C)C)CC2)nc1-c1cnc2ccc(-c3ccccc3)cn12 (stereo not shown) [Compound 97, N^1,N^1-Dimethyl-N^4-(5-methyl-4-(6-phenylimidazo[1,2-^a]pyridin-3-yl)pyrimidin-2-yl)cyclohexane-1,4-diamine]	54%	0.058 ± 0.002 µM	0.016 µM	–	–	–	39%	9%	28%	32%
CS(=O)(=O)N1CCC(Nc2ncc(F)c(-c3cnc4ccccn34)n2)CC1 [Compound 24, 5-Fluoro-4-(imidazo[1,2-a]pyridin-3-yl)-N-(1-(methylsulfonyl)piperidin-4-yl)pyrimidin-2-amine]	-16%	0.506 ± 0.104 µM	0.141 µM	0.281 µM	–	–	18%	–	-1%	-1%
COC(=O)CN1CCC(Nc2ncc(F)c(-c3cnc4ccccn34)n2)CC1 [Compound 23, Methyl 2-(4-((5-fluoro-4-(imidazo[1,2-a]pyridin-3-yl)pyrimidin-2-yl)amino)piperidin-1-yl)acetate]	0%	0.28 ± 0.049 µM	0.063 µM	0.885 µM	0.258 µM	0.155 µM	39%	–	–	–
COc1ccc(-c2ccc3ncc(-c4nc(N[C@H]5CC[C@H](N)CC5)ncc4C)n3c2)cn1 [Compound 58, (1r,4r)-N^1-(4-(6-(6-Methoxypyridin-3-yl)imidazo[1,2-a]pyridin-3-yl)-5-methylpyrimidin-2-yl)cyclohexane-1,4-diamine]	69%	0.177 ± 0.005 µM	0.17 µM	–	–	–	86%	22%	71%	70%
Cc1cnc(N[C@H]2CC[C@@H](N)CC2)nc1-c1cnc2ccc(Nc3cncnc3)cn12 [Compound 93, (1s,4s)-N^1-(5-Methyl-4-(6-(pyrimidin-5-ylamino)imidazo [1,2-a]pyridin-3-yl)pyrimidin-2-yl)cyclohexane-1,4-diamine]	28%	0.336 ± 0.082 µM	0.071 µM	–	–	–	69%	49%	35%	31%
N[C@H]1CC[C@H](Nc2ncc(F)c(-c3cnc4ccc(-c5ccc(C(=O)N6CCNCC6)cc5)cn34)n2)CC1 [Compound 117, (4-(3-(2-(((1r,4r)-4-Aminocyclohexyl)amino)-5-fluoropyrimidin-4-yl)imidazo[1,2-a]pyridin-6-yl)phenyl) (piperazin-1-yl)methanone]	0%	0.045 ± 0.004 µM	0.004 µM	–	–	–	12%	5%	10%	4%
Fc1cnc(N[C@H]2CC[C@H](Nc3ccccn3)CC2)nc1-c1cnc2ccc(-c3ccccc3)cn12 [Compound 28, (1r,4r)-N^1-(5-Fluoro-4-(6-phenylimidazo[1,2-a]pyridin-3-yl)pyrimidin-2-yl)-N4-(pyridin-2-yl)cyclohexane-1,4-diamine]	95%	0.042 ± 0.017 µM	0.85 µM	–	–	–	100%	2%	4%	8%
Cc1cnc(N[C@H]2CC[C@H](N)CC2)nc1-c1cnc2cc(Nc3cccnc3)ccn12 [Compound 55, (1r,4r)-N^1-(5-Methyl-4-(7-(pyridin-3-ylamino)imidazo [1,2-a]pyridin-3-yl)pyrimidin-2-yl)cyclohexane-1,4-diamine]	5%	0.558 ± 0.13 µM	0.069 µM	–	–	–	2%	8%	24%	5%
Cc1cnc(N[C@H]2CC[C@@H](N)CC2)nc1-c1cnc2ccc(Nc3cccnc3)cn12 [Compound 92, (1s,4s)-N^1-(5-Methyl-4-(6-(pyridin-3-ylamino)imidazo [1,2-a]pyridin-3-yl)pyrimidin-2-yl)cyclohexane-1,4-diamine]	37%	0.179 ± 0.061 µM	0.089 µM	–	–	–	58%	27%	22%	27%

The next molecules have a lower GI50 (leukemia cell lines) than those just listed; values first:

remaining activity at 10 µM (CDK4/D1)	GI50 (leukemia cell lines)	Ki (CDK9/T1)	Ki (CDKs and other kinases [1])	Ki (CDKs and other kinases [2])	Ki (CDKs and other kinases [3])	remaining activity at 10 µM (CDK6/D3)	remaining activity at 10 µM (CDKs and other kinases [1])	remaining activity at 10 µM (CDKs and other kinases [2])	remaining activity at 10 µM (CDKs and other kinases [3])	SMILES
0%	0.001 µM	0.006 µM	–	–	–	22%	6%	4%	4%	N[C@H]1CC[C@H](Nc2ncc(F)c(-c3cnc4ccc(NC(=O)c5ccc(F)cc5)cn34)n2)CC1 [Compound 51, N-(3-(2-(((1r,4r)-4-Aminocyclohexyl)amino)-5-fluoropyrimidin-4-yl)imidazo[1,2-a]pyridin-6-yl)-4-fluorobenzamide]
0%	< 0.001 µM	0.004 µM	–	–	–	1%	3%	0%	0%	N[C@H]1CC[C@H](Nc2ncc(F)c(-c3cnc4cc(Nc5cccnc5)ccn34)n2)CC1 [Compound 46, (1r,4r)-N^1-(5-Fluoro-4-(7-(pyridin-3-ylamino)imidazo [1,2-a]pyridin-3-yl)pyrimidin-2-yl)cyclohexane-1,4-diamine]
4%	< 0.001 µM	0.003 µM	–	–	–	15%	2%	-1%	4%	N[C@H]1CC[C@H](Nc2ncc(F)c(-c3cnc4ccc(-c5ncccc5F)cn34)n2)CC1 [Compound 27, (1r,4r)-N^1-(5-Fluoro-4-(6-(3-fluoropyridin-2-yl)imidazo [1,2-a]pyridin-3-yl)pyrimidin-2-yl)cyclohexane-1,4-diamine]
1%	< 0.001 µM	0.062 µM	0.001 µM	0.004 µM	0.0004 µM	26%	–	–	–	CS(=O)(=O)N[C@H]1CC[C@H](Nc2ncc(Cl)c(-c3cnc4ccc(Br)cn34)n2)CC1 [Compound 17, N-((1r,4r)-4-((4-(6-Bromoimidazo[1,2-a]pyridin-3-yl)-5-chloropyrimidin-2-yl)amino)cyclohexyl) methanesulfonamide]
40%	0.009 ± 0.001 µM	0.291 µM	–	–	–	27%	26%	75%	63%	COc1cnc(N[C@H]2CC[C@H](N)CC2)nc1-c1cnc2ccccn12 [Compound 11, (1r,4r)-N^1-(4-(Imidazo[1,2-a]pyridin-3-yl)-5-methoxypyrimidin-2-yl)cyclohexane-1,4-diamine]
63%	0.025 ± 0.009 µM	0.497 µM	–	–	–	87%	60%	87%	72%	Cc1cnc(N[C@H]2CC[C@H](N)CC2)nc1-c1cnc2ccc(-c3ccc(S(=O)(=O)N(C)C)cc3)cn12 [Compound 62, 4-(3-(2-(((1r,4r)-4-Aminocyclohexyl)amino)-5-methylpyrimidin-4-yl)imidazo[1,2-a]pyridin-6-yl)-N,N-dimethylbenzenesulfonamide]

Reference: patent US11111245B2, “Derivatives of N-cycloalkyl/heterocycloalkyl-4-(imidazo[1,2-a]pyridine)pyrimidin-2-amine as therapeutic agents” (Aucentra Therapeutics Pty Ltd, priority 2017, dated 2021)
